Experimental data taken from patent US9919998B2, “Antibacterial agents: Nα-aroyl-N-aryl-phenylalaninamides” (priority 2014, dated 2018).
Values after ≈ are worked out from the molar mass of the structure shown. Where two headings read alike, the source gives them in different places.

Assays:
[1] = target: Mycobacterium tuberculosis RNA polymerase (Mycobacterium tuberculosis, UniProt P9WGY7+P9WGY9); assay: Run-off transcription assay with Mycobacterium tuberculosis RNA polymerase (radiochemical); assay type: biochemical; settings: IC50 Mycobacterium tuberculosis RNA polymerase
Mycobacterium tuberculosis RNA polymerase, sequence (P9WGZ1 whole entry, the tested form may be a part): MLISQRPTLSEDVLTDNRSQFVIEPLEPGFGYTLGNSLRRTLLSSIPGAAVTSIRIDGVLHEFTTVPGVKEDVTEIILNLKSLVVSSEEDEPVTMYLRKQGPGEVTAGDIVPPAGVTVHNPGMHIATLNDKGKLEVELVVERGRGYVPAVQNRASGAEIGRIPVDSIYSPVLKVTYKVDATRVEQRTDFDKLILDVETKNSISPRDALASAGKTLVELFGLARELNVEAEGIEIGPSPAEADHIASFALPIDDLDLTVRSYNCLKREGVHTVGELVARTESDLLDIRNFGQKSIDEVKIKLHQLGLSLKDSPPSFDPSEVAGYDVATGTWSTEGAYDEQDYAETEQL
Mycobacterium tuberculosis RNA polymerase, sequence (P9WGY5 whole entry, further chain, the tested form may be a part): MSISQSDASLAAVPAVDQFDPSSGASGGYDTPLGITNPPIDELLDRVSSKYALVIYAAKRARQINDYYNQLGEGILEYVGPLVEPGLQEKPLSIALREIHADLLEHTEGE
Mycobacterium tuberculosis RNA polymerase, sequence (P9WGY9 whole entry, the tested form may be a part): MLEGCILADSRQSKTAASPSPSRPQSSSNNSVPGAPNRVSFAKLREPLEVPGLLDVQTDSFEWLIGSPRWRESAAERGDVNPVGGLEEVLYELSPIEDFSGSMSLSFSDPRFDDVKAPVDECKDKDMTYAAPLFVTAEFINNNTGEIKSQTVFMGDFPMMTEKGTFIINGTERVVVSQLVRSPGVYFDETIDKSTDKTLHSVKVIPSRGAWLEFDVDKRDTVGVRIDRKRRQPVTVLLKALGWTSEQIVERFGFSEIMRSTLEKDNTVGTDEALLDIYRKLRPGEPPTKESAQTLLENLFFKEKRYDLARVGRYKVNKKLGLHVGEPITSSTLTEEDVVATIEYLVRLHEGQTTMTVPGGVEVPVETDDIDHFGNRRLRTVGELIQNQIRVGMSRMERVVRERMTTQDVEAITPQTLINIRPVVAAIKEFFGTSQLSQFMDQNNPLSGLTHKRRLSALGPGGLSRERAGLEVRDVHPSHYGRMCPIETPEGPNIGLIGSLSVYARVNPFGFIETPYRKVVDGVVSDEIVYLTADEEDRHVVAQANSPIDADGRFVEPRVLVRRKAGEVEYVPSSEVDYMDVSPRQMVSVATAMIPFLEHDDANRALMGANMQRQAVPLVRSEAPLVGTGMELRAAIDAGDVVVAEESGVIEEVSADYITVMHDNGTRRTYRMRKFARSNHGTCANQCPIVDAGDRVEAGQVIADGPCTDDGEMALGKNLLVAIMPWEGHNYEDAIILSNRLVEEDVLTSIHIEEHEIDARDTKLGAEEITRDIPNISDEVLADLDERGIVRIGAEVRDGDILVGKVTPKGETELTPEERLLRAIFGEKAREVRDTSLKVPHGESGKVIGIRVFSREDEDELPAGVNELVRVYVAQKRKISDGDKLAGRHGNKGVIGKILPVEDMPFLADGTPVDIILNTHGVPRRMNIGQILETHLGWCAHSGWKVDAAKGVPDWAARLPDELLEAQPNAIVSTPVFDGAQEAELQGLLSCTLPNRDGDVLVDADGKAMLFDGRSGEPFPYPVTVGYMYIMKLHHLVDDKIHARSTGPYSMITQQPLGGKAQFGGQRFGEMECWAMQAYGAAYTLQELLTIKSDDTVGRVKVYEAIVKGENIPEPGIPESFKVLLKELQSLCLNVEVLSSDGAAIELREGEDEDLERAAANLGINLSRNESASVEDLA
Mycobacterium tuberculosis RNA polymerase, sequence (P9WGI1 whole entry, further chain, the tested form may be a part): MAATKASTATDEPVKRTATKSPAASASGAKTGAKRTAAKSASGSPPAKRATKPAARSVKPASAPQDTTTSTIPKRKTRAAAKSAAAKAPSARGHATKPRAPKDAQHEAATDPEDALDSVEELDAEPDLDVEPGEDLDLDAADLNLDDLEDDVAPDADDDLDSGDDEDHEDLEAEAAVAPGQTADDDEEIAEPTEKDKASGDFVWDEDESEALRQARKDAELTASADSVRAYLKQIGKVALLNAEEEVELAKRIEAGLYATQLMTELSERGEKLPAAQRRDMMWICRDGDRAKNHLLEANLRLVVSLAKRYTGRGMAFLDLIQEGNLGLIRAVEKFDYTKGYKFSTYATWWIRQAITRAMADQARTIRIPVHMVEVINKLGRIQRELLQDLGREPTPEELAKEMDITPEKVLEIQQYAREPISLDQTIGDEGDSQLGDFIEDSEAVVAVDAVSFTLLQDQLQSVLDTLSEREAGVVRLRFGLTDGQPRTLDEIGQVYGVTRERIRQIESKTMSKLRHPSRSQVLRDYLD
Mycobacterium tuberculosis RNA polymerase, sequence (P9WGY7 whole entry, the tested form may be a part): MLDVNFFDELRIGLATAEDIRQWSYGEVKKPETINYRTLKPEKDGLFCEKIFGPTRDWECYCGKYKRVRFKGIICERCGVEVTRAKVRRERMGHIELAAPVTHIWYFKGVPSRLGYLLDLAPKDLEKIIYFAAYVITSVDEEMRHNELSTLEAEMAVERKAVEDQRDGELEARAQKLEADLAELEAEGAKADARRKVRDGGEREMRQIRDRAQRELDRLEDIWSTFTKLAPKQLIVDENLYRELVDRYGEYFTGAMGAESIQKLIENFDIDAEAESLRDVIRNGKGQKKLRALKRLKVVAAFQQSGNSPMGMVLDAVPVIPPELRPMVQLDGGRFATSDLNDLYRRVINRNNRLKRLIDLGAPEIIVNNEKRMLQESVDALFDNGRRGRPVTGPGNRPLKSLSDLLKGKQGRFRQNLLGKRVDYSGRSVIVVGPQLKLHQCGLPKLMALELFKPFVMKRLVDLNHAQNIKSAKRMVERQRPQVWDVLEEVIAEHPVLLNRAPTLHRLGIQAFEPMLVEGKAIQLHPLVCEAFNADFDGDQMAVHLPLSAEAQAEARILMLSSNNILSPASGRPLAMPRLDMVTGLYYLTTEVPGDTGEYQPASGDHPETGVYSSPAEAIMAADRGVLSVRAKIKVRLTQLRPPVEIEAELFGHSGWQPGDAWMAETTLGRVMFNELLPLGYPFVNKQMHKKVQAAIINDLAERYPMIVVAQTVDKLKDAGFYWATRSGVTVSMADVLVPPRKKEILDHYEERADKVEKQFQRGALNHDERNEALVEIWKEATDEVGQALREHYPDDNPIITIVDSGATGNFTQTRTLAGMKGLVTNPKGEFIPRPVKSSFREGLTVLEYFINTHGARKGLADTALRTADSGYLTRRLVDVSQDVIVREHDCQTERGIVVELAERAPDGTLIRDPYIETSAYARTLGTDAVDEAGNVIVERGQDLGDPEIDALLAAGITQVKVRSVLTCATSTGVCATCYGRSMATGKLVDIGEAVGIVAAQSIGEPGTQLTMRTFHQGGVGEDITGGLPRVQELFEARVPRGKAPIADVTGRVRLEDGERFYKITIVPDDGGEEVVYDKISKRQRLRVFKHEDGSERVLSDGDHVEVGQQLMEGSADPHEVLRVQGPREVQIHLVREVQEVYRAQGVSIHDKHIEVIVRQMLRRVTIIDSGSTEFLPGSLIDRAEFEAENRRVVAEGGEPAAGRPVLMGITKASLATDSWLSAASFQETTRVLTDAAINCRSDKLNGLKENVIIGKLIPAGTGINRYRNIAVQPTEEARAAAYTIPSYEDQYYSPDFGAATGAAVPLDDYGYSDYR
Method: Run-off transcription assays with Mycobacterium tuberculosis RNA polymerase were performed using reaction mixtures containing (10 μl): 0-100 μM test compound, 75 nM Mycobacterium tuberculosis RNA polymerase core enzyme, 300 nM Mycobacterium tuberculosis σ^A, 20 nM 130 bp DNA fragment containing positions −100 to −1 of the bacteriophage […] N25 promoter followed by positions +1 to +30 of the lacUV5-15 promoter of [Mukhopadhyay, J., Kapanidis, A., Mekler, V., Kortkhonjia, E., Ebright, Y., Ebright, R. (2001) Cell 106, 453-463], 25 nM [alpha-^32P]UTP (600 Bq/pmol) for an initial 2 min at 37° C. and 100 μM [alpha-^32P]UTP (6 Bq/pmol) for a subsequent 5 min at 37° C., 100 μM ATP, 100 μM GTP, 100 μM UTP, 100 μM CTP, 40 mM Tris-HCl, pH 8.0, 80 mM NaCl, 5 mM MgCl2, 2.5 mM DTT, and 12.7% glycerol. Reactions were terminated by addition of […] 80% formamide, 10 mM EDTA, 0.04% bromophenol blue, and 0.04% xylene cyanol, followed by heating for 5 min at 90° C. Reaction products were resolved by 15% urea-PAGE, and quantified using a storage-phosphor scanner.

[2] = system: Mycobacterium tuberculosis H37Rv; assay: Microplate Alamar Blue assay (MABA) MIC, M. tuberculosis; assay type: cell-based; settings: read-out: MIC Mycobacterium tuberculosis H37Rv
Text: (§1) Minimal inhibitory concentrations (MICs) in Mycobacterium tuberculosis H37Rv and Mycobacterium avium ATCC 25291 were quantified using microplate Alamar Blue assays as described (MABA; [Collins, L. & Franzblau, S. (1997) Microplate Alamar Blue assay versus BACTEC 460 system for high-throughput screening of compounds against Mycobacterium tuberculosis and Mycobacterium avium. Antimicrob. Agents Chemother. 41, 1004-1009]).

[3] = system: Mycobacterium avium ATCC 25291; assay: Microplate Alamar Blue assay (MABA) MIC, M. avium; assay type: cell-based; settings: ATCC25291, M. avium ATCC 25291
Text: as §1

[4] = system: Mycobacterium smegmatis ATCC 19420; assay: Broth microdilution MIC, M. smegmatis; assay type: cell-based; settings: Mycolicibacterium smegmatis
Text: (§2) MICs in Mycobacterium smegmatis ATCC 19420 and Mycobacterium smegmatis ATCC 19420 derivatives were quantified using broth microdilution assays as described [Clinical and Laboratory Standards Institute (CLSI/NCCLS) (2009) Methods for Dilution Antimicrobial Susceptibility Tests for Bacteria That Grow Aerobically; Approved Standard, Eighth Edition. CLIS Document M07-A8 (CLIS, Wayne Pa.)].

[5] = system: Vero E6 ATCC CRL1586 cells; assay: Mammalian-cell cytotoxicity, minimal cytotoxic concentration (CellTiter96); assay type: cell-based
Method: Minimal cytotoxic concentrations (MCCs) against mammalian cells in culture were determined using Vero E6 ATCC CRL1586 cells and the CellTiter96 assay kit (Promega, Inc.). […]

[6] = system: rifampin-resistant mutants, derivatives of M. smegmatis ATCC19420; assay: MICs in rifampin-resistant mutants (cross-resistance levels); assay type: cell-based, Mycobacterium smegmatis
Text: as §2

[7] = system: AAP1-resistant mutants, derivatives of M. smegmatis ATCC19420; assay: MICs in AAP1-resistant mutants (resistance and cross-resistance levels); assay type: cell-based, Mycobacterium smegmatis; settings: MICs in AAP1-resistant mutants
[8] = ATCC19420, M. smegmatis ATCC 19420, read-out: MIC Mycobacterium smegmatis ATCC 19420

Row | Structure (SMILES) | IC50 [1] | MIC [2] | MIC [3] | MIC [4, 8] | MCC mammalian cells Vero E6 ATCC CRL1586 [5] | cross-resistance of rifampin-resistant mutants to the compound [6] | cross-resistance of AAP1-resistant mutants to the compound [7] | MIC ([4]; ATCC19420, read-out: MIC with wild-type rpoB and wild-type rpoC, M. smegmatis ATCC19420 wild type, reference for AAP1-resistant mutants) | hypersensitivity of AAP1-resistant mutants to the compound [7]
1 | Cc1ccc(F)cc1NC(=O)C(Cc1ccccc1)NC(=O)c1ccccc1 (stereo not drawn) [I-75] | 990 nM | 1.56 µg/mL (≈ 4.14 µM) | 1.56 µg/mL (≈ 4.14 µM) | 0.195 µg/mL (≈ 0.518 µM) | 4 µg/mL |  |  |  | 
2 | Cc1ccccc1NC(=O)C(Cc1ccccc1)NC(=O)c1ccccc1F (stereo not drawn) [I-80] | 2800 nM | 3.12 µg/mL (≈ 8.29 µM) | 6.25 µg/mL (≈ 16.6 µM) | 0.39 µg/mL (≈ 1.04 µM) | 43 µg/mL | No rifampin-resistant mutant was found to exhibit cross-resistance |  |  | 
3 | Cc1ccc(Cl)cc1NC(=O)C(Cc1ccccc1)NC(=O)c1ccccc1 (stereo not drawn) [I-86] | 920 nM | 1.56 µg/mL (≈ 3.97 µM) | 3.12 µg/mL (≈ 7.95 µM) | 0.195 µg/mL (≈ 0.496 µM) | 13 µg/mL | No rifampin-resistant mutant was found to exhibit cross-resistance |  |  | 
4 | O=C(NC(Cc1ccccc1)C(=O)Nc1ccccc1N1CCOCC1)c1ccccc1 (stereo not drawn) [I-181] | 400 nM | 0.78 µg/mL (≈ 1.82 µM) | 6.25 µg/mL (≈ 14.6 µM) | 0.073 µg/mL (≈ 0.17 µM) | >100 µg/mL |  |  |  | 
5 | O=C(NC(Cc1ccccc1)C(=O)Nc1ccccc1OCF)c1ccccc1 (stereo not drawn) [IX-27, N-(1-((2-(fluoromethoxy)phenyl)amino)-1-oxo-3-phenylpropan-2-yl)benzamide] | 990 nM | 1.56 µg/mL (≈ 3.98 µM) | 3.12 µg/mL (≈ 7.96 µM) | 0.195 µg/mL (≈ 0.497 µM) | >100 µg/mL |  |  |  | 
6 | COc1ccc(F)cc1NC(=O)C(Cc1ccccc1)NC(=O)c1ccccc1 (stereo not drawn) [IX-73, N-(1-((5-fluoro-2-methoxyphenyl)amino)-1-oxo-3-phenylpropan-2-yl)benzamide] |  | 1.56 µg/mL (≈ 3.98 µM) | 0.78 µg/mL (≈ 1.99 µM) | 0.19 µg/mL (≈ 0.484 µM) | >100 µg/mL |  | cross-resistance |  | 
7 | COc1ccc(F)cc1NC(=O)C(Cc1ccc(O)cc1)NC(=O)c1ccccc1F (stereo not drawn) [IX-204, 2-fluoro-N-(1-((5-fluoro-2-methoxyphenyl)amino)-3-(4-hydroxy-phenyl)-1-oxopropan-2-yl)benzamide] | 390 nM | 0.78 µg/mL (≈ 1.83 µM) | 1.56 µg/mL (≈ 3.66 µM) | 0.39 µg/mL (≈ 0.915 µM) | 50 µg/mL |  |  |  | 
8 | O=C(NC(Cc1ccccc1)C(=O)Nc1ccccc1N1CCNCC1)c1ccccc1F (stereo not drawn) [IX-211, 2-fluoro-N-(1-oxo-3-phenyl-1-((2-(piperazin-1-yl)phenyl)amino)-propan-2-yl)benzamide] |  | 1.56 µg/mL (≈ 3.49 µM) | 1.56 µg/mL (≈ 3.49 µM) | 0.09 µg/mL (≈ 0.202 µM) | 18 µg/mL |  | cross-resistance |  | 
9 | Cc1ccccc1C(=O)NC(Cc1ccccc1)C(=O)Nc1ccccc1N1CCNCC1 (stereo not drawn) [IX-212, 2-methyl-N-(1-oxo-3-phenyl-1-((2-(piperazin-1-yl)phenyl)amino)-propan-2-yl)benzamide] |  | 1.56 µg/mL (≈ 3.52 µM) | 1.56 µg/mL (≈ 3.52 µM) | 0.097 µg/mL (≈ 0.219 µM) | 15 µg/mL |  | cross-resistance |  | 
10 | O=C(NC(Cc1ccccc1)C(=O)Nc1ccccc1N1CCNCC1)c1cccs1 (stereo not drawn) [IX-213, N-(1-oxo-3-phenyl-1-((2-(piperazin-1-yl)phenyl)amino)propan-2-yl)thiophene-2-carboxamide] |  | 1.56 µg/mL (≈ 3.59 µM) | 0.78 µg/mL (≈ 1.79 µM) | 0.097 µg/mL (≈ 0.223 µM) | 33 µg/mL |  | cross-resistance |  | 
11 | O=C(NC(Cc1ccccc1)C(=O)Nc1cccc2scnc12)c1ccccc1 (stereo not drawn) [IX-235, N-(1-(benzo[d]thiazol-4-ylamino)-1-oxo-3-phenylpropan-2-yl)benz-amide] |  | 3.12 µg/mL (≈ 7.78 µM) | 6.25 µg/mL (≈ 15.6 µM) | 0.78 µg/mL (≈ 1.94 µM) |  |  | cross-resistance |  | 
12 | O=C(NC(Cc1ccccc1)C(=O)Nc1cc(F)ccc1N1CCNCC1)c1ccccc1 (stereo not drawn) [IX-245, N-(1-((5-fluoro-2-(piperazin-1-yl)phenyl)amino)-1-oxo-3-phenyl-propan-2-yl)benzamide] | 220 nM | 1.56 µg/mL (≈ 3.49 µM) | 0.78 µg/mL (≈ 1.75 µM) | 0.39 µg/mL (≈ 0.873 µM) | 17 µg/mL |  |  |  | 
13 | COc1ccc(F)cc1NC(=O)C(Cc1ccccc1)NC(=O)c1ccccc1F (stereo not drawn) [IX-276, 2-fluoro-N-(1-((5-fluoro-2-methoxyphenyl)amino)-1-oxo-3-phenyl-propan-2-yl)benzamide] |  | 0.16 µg/mL (≈ 0.39 µM) | 0.78 µg/mL (≈ 1.9 µM) | 0.39 µg/mL (≈ 0.95 µM) |  |  | cross-resistance |  | 
14 | NC1CCN(c2ccc(F)cc2NC(=O)C(Cc2ccccc2)NC(=O)c2ccccc2F)CC1 (stereo not drawn) [IX-312, N-(1-((2-(4-aminopiperidin-1-yl)-5-fluorophenyl)amino)-1-oxo-3-phenylpropan-2-yl)-2-fluorobenzamide] |  | 3.13 µg/mL (≈ 6.54 µM) | 3.13 µg/mL (≈ 6.54 µM) | 0.195 µg/mL (≈ 0.407 µM) |  |  | cross-resistance |  | 
15 | O=C(NC(Cc1ccccc1)C(=O)Nc1cc(F)ccc1N1CC2CNCC2C1)c1ccccc1F (stereo not drawn) [IX-313, 2-fluoro-N-(1-((5-fluoro-2-(hexahydropyrrolo[3,4-c]pyrrol-2(1H)-yl)phenyl)amino)-1-oxo-3-phenylpropan-2-yl)benzamide] |  | 1.56 µg/mL (≈ 3.18 µM) | 1.56 µg/mL (≈ 3.18 µM) | 0.39 µg/mL (≈ 0.795 µM) |  |  | cross-resistance |  | 
16 | O=C(NC(Cc1ccccc1)C(=O)Nc1cc(F)ccc1N1CCNCC1)c1ccccc1Br (stereo not drawn) [IX-315, 2-bromo-N-(1-((5-fluoro-2-(piperazin-1-yl)phenyl)amino)-1-oxo-3-phenylpropan-2-yl)benzamide] | 210 nM | 3.12 µg/mL (≈ 5.95 µM) | 1.56 µg/mL (≈ 2.97 µM) | 0.39 µg/mL (≈ 0.742 µM) | 12.5 µg/mL |  |  |  | 
17 | CO[C@H]1/C=C/O[C@@]2(C)Oc3c(C)c(O)c4c(O)c(c(/C=N/N5CCN(C)CC5)c(O)c4c3C2=O)NC(=O)/C(C)=C\C=C\[C@H](C)[C@H](O)[C@@H](C)[C@@H](O)[C@@H](C)[C@H](OC(C)=O)[C@@H]1C [rifampin, reference compound] |  |  |  |  |  |  | No AAP1-resistant mutant was found to exhibit cross-resistance | 3.13 µg/mL (≈ 3.8 µM) | Some AAP1 resistant mutants were found to be hypersensitive
